Patent US20100216747A1, “PREVENTIVE AGENT OR THERAPEUTIC AGENT FOR DISEASE CAUSED BY ABNORMAL BONE METABOLISM” (TEIJIN PHARMA LIMITED, priority 2007, published 2010)
Where two headings read alike, the source gives them in different places.

Experiments:
[1] = tested on: osteoclast-like cells formed from mouse bone marrow-derived cells; assay: Formation of osteoclast-like cells (TRAP-positive multinuclear cells) from mouse bone marrow-derived cells cultured with 1α,25(OH)2D3; assay type: cell-based; conditions: alone or simultaneously, 7 days; for number of osteoclast-like cells formed, taking Comparative Example 1-1 as 100%: Example 1 experiment (FIG. 1): Compound A 10^−7 M; for number of osteoclast-like cells formed, taking Comparative Example 1-1 as 100% / number of osteoclast-like cells formed, taking Comparative Example 2-1 as 100%: 3 wells; for number of osteoclast-like cells formed, taking Comparative Example 2-1 as 100%: Example 2 experiment (FIG. 2): Compound A 10^−6 M; for number of osteoclast-like cells formed, taking Comparative Example 3-1 as 100%: Example 3 experiment (FIG. 3): Compound A 10^−7 M, 4 to 5 wells
Excerpt: Multinuclear osteoclast-like cells were formed from mouse bone marrow-derived cells by collecting bone marrows of the femur and the tibia from a mouse, removing erythrocytes according to the ordinary method, plating the residual components in a 96-well plate at the density of 4×10^5cells/well, culturing the cells overnight, then adding a medium containing 1α,25-dihydroxy vitamin D3 (referred to as 1═,25(OH)2D3 hereinbelow) in order to be at 10^−9M, and culturing the cells in the presence of 1α,25(OH)2D3 for 7 days. An αMEM medium containing 10% fetal calf serum (referred to as 10% FCS-αMEM hereinbelow) was used as a medium. When 1α,25(OH)2D3 was added to the mouse bone marrow-derived cells, each of a solvent alone (Comparative Example 1-1), N-hydroxy-4-{5-[4-(5-isopropyl-2-methyl-1,3-thiazol-4-yl)phenoxy]pentoxy}-benzamidine (described as Compound A in Figure) alone (Comparative Example 1-2), risedronic acid alone (Comparative Example 1-3), and N-hydroxy-4-{5-[4-(5-isopropyl-2-methyl-1,3-thiazol-4-yl)phenoxy]pentoxy}-benzamidine (described as Compound A in Figure) and risedronic acid simultaneously (Example 1) were added to the mouse bone marrow-derived cell culture system, and the effects on formation of osteoclast-like cells were evaluated. The following groups were set for the experiment.
For addition of N-hydroxy-4-{5-[4-(5-isopropyl-2-methyl-1,3-thiazol-4-yl)phenoxy]pentoxy}-benzamidine (Compound A), in both the Comparative Examples and Example, N-hydroxy-4-{5-[4-(5-isopropyl-2-methyl-1,3-thiazol-4-yl)phenoxy]pentoxy}-benzamidine (Compound A) was dissolved in dimethylsulfoxide (DMSO) at a concentration of 10^−4 M, and the resultant solution was added to the medium to make 10^−7 M at a 1000-fold dilution. For addition of risedronic acid, in both the Comparative Examples and Example, sodium risedronate hydrate was dissolved in phosphate buffered saline (PBS) at a concentration of […], and the resultant solution was added to the medium to make 3×10^−7 M at a 1000-fold dilution. On the third day after addition of the test compound(s) of the respective conditions, the medium was replaced with fresh 10% FCS-αMEM containing the test compound(s) of the respective conditions in both the Comparative Examples and Example.
In both the Comparative Examples and Example, on the 7th day after the start of culture, the medium was removed, the cells were fixed with phosphate buffered formalin and stained by tartrate-resistant acid phosphatase (abbreviated as TRAP hereinbelow), an osteoclast marker, using Sigma Acid Phosphatase, Leukocyte (TRAP) kit (Sigma, No. 386A), and the number of TRAP-positive multinuclear cells having 6 or more cell nuclei was counted as osteoclast-like cells under an optical microscope.
The experiment was conducted in a similar manner to that described in Example 1, except that the concentration of N-hydroxy-4-{5-[4-(5-isopropyl-2-methyl-1,3-thiazol-4-yl)phenoxy]pentoxy}-benzamidine in the medium was set at 10^−6M, and the following groups were set.
The experiment was conducted in a similar manner to that described in Example 1, except that clodronic acid at a concentration of 10^−5 M was allowed to act on the cells in place of risedronic acid at a concentration of 3×10^−7 M in the Comparative Examples and Example, and the following groups were set.

[2] = tested on: osteoclast-like cells formed from mouse bone marrow-derived cells; assay: Bone resorption activity of osteoclast-like cells on ivory section (type I collagen cross-linked C-telopeptide in medium, ELISA); assay type: cell-based; conditions: Example 4 experiment: Compound A 10^−7 M, risedronic acid 10^−8 M, alone or simultaneously, 9 days on ivory section, vs Comparative Example 4-1, 3 to 4 wells
Excerpt: Multinuclear osteoclast-like cells were formed from mouse bone marrow-derived cells by collecting bone marrows of the femur and the tibia from a mouse, removing erythrocytes according to the ordinary method, plating the residual components in a 96-well plate containing an ivory section at the density of 4×10^5 cells/well, culturing the cells overnight, then adding a medium containing 1α,25-dihydroxy vitamin D3 (referred to as 1α,25(OH)2D3 hereinbelow) in order to be at 10^−9 M, and culturing the cells in the presence of 1α,25(OH)2D3 for 9 days. An αMEM medium containing 10% fetal calf serum (referred to as 10% FCS-αMEM hereinbelow) was used as a medium. When 1α,25(OH)2D3 was added to the mouse bone marrow-derived cells, each of a solvent alone (Comparative Example 4-1), N-hydroxy-4-{5-[4-(5-isopropyl-2-methyl-1,3-thiazol-4-yl)phenoxy]pentoxy}-benzamidine (described as Compound A in Table 4) alone (Comparative Example 4-2), risedronic acid alone (Comparative Example 4-3), and N-hydroxy-4-{5-[4-(5-isopropyl-2-methyl-1,3-thiazol-4-yl)phenoxy]pentoxy}-benzamidine (described as Compound A in Table 4) and risedronic acid (Example 4) were simultaneously added to the mouse bone marrow-derived cell culture system, and the effects on formation of osteoclast-like cells were evaluated. The following groups were set for the experiment.
For addition of N-hydroxy-4-{5-[4-(5-isopropyl-2-methyl-1,3-thiazol-4-yl)phenoxy]pentoxy}-benzamidine (Compound A), in both the Comparative Examples and Example, N-hydroxy-4-{5-[4-(5-isopropyl-2-methyl-1,3-thiazol-4-yl)phenoxy]pentoxy}-benzamidine (Compound A) was dissolved in dimethylsulfoxide (DMSO) at a concentration of 10^−4 M, and the resultant solution was added to the medium to make 10^−7 M at a 1000-fold dilution. […]
Both in Comparative Examples and Example, the culture medium was collected 9 days after the start of culture, and the quantity of type I collagen cross-linked C-telopeptide in the medium was measured. […]

[3] = Mus musculus, Osteoclast-like, 168 h, Example 1 experiment: Compound A 10^−7 M, risedronic acid 3×10^−7 M, vs Comparative Example 1-1, read-out: Osteoclast-like cell formation inhibition rate (%)
[4] = Mus musculus, Osteoclast-like, 168 h, Example 2 experiment: Compound A 10^−6 M, risedronic acid 3×10^−7 M, vs Comparative Example 2-1, read-out: Osteoclast-like cell formation inhibition rate (%)
[5] = Mus musculus, Osteoclast-like, 216 h, read-out: Bone resorption inhibitory rate (%)
[6] = Mus musculus, Osteoclast-like, 168 h, Example 3 experiment: Compound A 10^−7 M, clodronic acid 10^−5 M, vs Comparative Example 3-1, read-out: Osteoclast-like cell formation inhibition rate (%)

SMILES | number of osteoclast-like cells formed, taking Comparative Example 1-1 as 100% ([1]; risedronic acid 3×10^−7 M) [%] | number of osteoclast-like cells formed, taking Comparative Example 2-1 as 100% ([1]; risedronic acid 3×10^−7 M) [%] | inhibition at 0.3 µM [1, 3] [%] | inhibition at 0.3 µM [1, 4] [%] | Bone resorption inhibitory rate (%) ([2]; listed as Comparative Example 4-3) | inhibition at 0.01 µM [2, 5] [%] | number of osteoclast-like cells formed, taking Comparative Example 3-1 as 100% ([1]; clodronic acid 10^−5 M) [%] | inhibition at 10 µM [1, 6] [%] | inhibition at 0.1 µM [1, 3] [%] | inhibition at 1 µM [1, 4] [%] | inhibition at 0.1 µM [1, 6] [%] | inhibition at 0.1 µM [2, 5] [%]
O=P(O)(O)C(O)(Cc1cccnc1)P(=O)(O)O [risedronic acid] | 88.1 | 88.1 | 11.9 | 11.9 | 18.3 | 18.3 | – | – | – | – | – | –
O=P(O)(O)C(Cl)(Cl)P(=O)(O)O [clodronic acid] | – | – | – | – | – | – | 93.9 | 6.1 | – | – | – | –
Cc1nc(-c2ccc(OCCCCCOc3ccc(/C(N)=N/O)cc3)cc2)c(C(C)C)s1 [Compound A, N-hydroxy-4-{5-[4-(5-isopropyl-2-methyl-1,3-thiazol-4-yl)phenoxy]pentoxy}-benzamidine] | 81.3 | 50 | – | – | – | – | 95.2 | – | 18.7 | 50 | 4.8 | 13.9
